Measurements from patent US20240383853A1, “OXIMES AND THEIR USE IN TREATMENT OF GBA-RELATED DISEASES” (ZEVRA DENMARK A/S, priority 2021, published 2024).
Counter-ions that a name gives are not always drawn. Marks after values point to notes of the source that are not given here.

Molecular target: T1, glucosylceramidase (GCase, GBA) in human fibroblast cell line GM10915 harboring the L444P GBA mutation (Homo sapiens, UniProt P04062, L483P)
T1 construct: Human fibroblast cell line GM10915 harboring the L444P GBA mutation; host or cells: GM10915 human fibroblasts
T1 sequence (P04062 40-536 L483P): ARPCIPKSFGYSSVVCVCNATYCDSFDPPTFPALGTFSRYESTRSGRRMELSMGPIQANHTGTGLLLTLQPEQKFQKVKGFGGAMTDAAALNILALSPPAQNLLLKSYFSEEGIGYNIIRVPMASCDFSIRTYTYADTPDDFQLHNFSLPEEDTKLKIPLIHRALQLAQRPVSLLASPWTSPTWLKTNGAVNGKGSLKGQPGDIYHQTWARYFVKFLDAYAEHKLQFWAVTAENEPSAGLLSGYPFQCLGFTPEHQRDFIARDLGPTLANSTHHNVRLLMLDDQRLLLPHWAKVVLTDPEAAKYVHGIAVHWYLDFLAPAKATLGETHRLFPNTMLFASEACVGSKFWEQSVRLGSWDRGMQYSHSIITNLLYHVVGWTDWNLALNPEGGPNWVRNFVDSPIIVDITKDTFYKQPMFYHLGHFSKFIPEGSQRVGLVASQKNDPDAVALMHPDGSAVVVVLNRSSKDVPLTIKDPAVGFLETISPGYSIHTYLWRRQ
Experiment: GCase activity assay (4-MUG substrate, normalised to crystal violet staining) in GM10915 fibroblasts
Assay type: cell-based
Conditions: five days exposure; for GBA EC1.5: concentration where Percent GCase activity = 150% (1.5-fold induction), 8-point dose range
Procedure: Human fibroblast cell line GM10915 harboring the L444P GBA mutation was obtained from Coriell Biorepositories. All chemicals (Glacial acetic acid, Glycine, 4-Methylumbelliferyl b-D-glucopyranoside (4-MUG), Sodium acetate trihydrate, Sodium hydroxide, Crystal violet, SDS, Ammonium hydroxide) were obtained from Sigma-Aldrich (Denmark). Compounds tested for GCase activity were dissolved in H2O or DMSO.
The GM10915 cell line was cultured under standard cell culture conditions (37° C. and 5% CO2) in complete DMEM medium supplemented with nonessential amino acids (NEAA), 1% Pen-Strep and 12% FCS. Cells were seeded at a density of 10^4 cells/well in 100 μL complete medium in one black 96-well plate for glucosylceramidase (GCase) activity measurement and in one clear 96-well plate for crystal violet staining to correct for cell density. Crystal violet staining is performed to obtain quantitative information about the relative density of cells adhering to multi-wells plates.
The assay was adapted from Sawkar et al (2002) and briefly described in the following. The day after seeding of cells, the medium was replaced with fresh medium containing the compounds to be tested. Compounds were tested in duplicate and in an 8-point diluted dose range to obtain a dose response. Cells were exposed with compounds for five days. Fresh compound was added every 2-3 days. PBS was included to define the basal level of GCase activity.
Cells were washed three times with 200 μL PBS per well and 50 μL of 2.5 mM 4-MUG buffer (4-MUG dissolved in 0.2 M acetate buffer pH 4.0) was added and the cells were incubated at 37° C., 5% CO2 for 23 hours. The reaction was stopped by adding 150 μL 0.2 M glycine buffer (pH 10.8). Fluorescence was measured with a Varioskan® Flash reader (Thermo Scientific) at an excitation/emission setting of 365/445 nm.
Cells were treated with compounds in a parallel setup identical to the setup to test for GCase activity. At the end of compound treatment, cells were washed once with 200 μL PBS per well and 50 μL 0.1% w/v crystal violet (in H2O) was added. Following 10 min. of incubation, the crystal violet solution was removed, and the cells were washed three times with 200 μL PBS and 100 μL 1% SDS was added to solubilize the stain. The plate was agitated on an orbital shaker for 10-30 min. Absorbance (A) is measured at […] using a Varioskan® Flash reader (Thermo Scientific).
The fluorescence signal (F) derived from the GCase measurement is normalized to the absorbance signal (A) derived from the crystal violet staining. The percent GCase activity resulting from compound treatment is calculated relative to the basal activity obtained from untreated cells.
Maximal effect of compounds (Emax) is determined from the dose response effects as the maximum “Percent GCase activity” achieved in the dose range tested.

[1] = maximum Percent GCase activity relative to untreated cells in the dose range tested

With “4-(3-chloropyridin-4-yl)-N-(2-hydroxy-3-(piperidin-1-yl)propoxy)piperidine-4-carbimidoyl chloride tri-2,2,2-trifluoroacetate [ID 535]” the “GBA EC1.5” value was 36 µM and the “GBA Emax” value [1] was 186%.
With `CC1(C(Cl)=NOC[C@@H](O)CN2CCCCC2)CCNCC1` (single isomer, unassigned) [ID 384] the “GBA EC1.5” value was 32 µM and the Emax [1] was 352%.
`CC1(C(Cl)=NOCC(O)CN2CC3CC3C2)CCNCC1` (single isomer, unassigned) [ID 403, N-(3-(3-azabicyclo[3.1.0]hexan-3-yl)-2-hydroxypropoxy)-4-methylpiperidine-4-carbimidoyl chloride di-2,2,2-trifluoroacetate] was tested, and the “GBA EC1.5” value was 48 µM and the Emax [1] was 264%.
`CC1(C(Cl)=NOCC(O)CN2CC3CCC2C3)CCNCC1` (single isomer, unassigned) [ID 410, N-(3-(2-azabicyclo[2.2.1]heptan-2-yl)-2-hydroxypropoxy)-4-methylpiperidine-4-carbimidoyl chloride di-2,2,2-trifluoroacetate] was tested, and the “GBA EC1.5” value was 43 µM and the Emax [1] was 344%.
`CN1CCN(CC(O)CON=C(Cl)C2(Cc3cccnc3)CCNCC2)CC1` (single isomer, unassigned) [ID 513, N-(2-hydroxy-3-(4-methylpiperazin-1-yl)propoxy)-4-(pyridin-3-ylmethyl)piperidine-4-carbimidoyl chloride tetra-2,2,2-trifluoroacetate] was tested, and the “GBA EC1.5” value was 35 µM and the Emax [1] was 174%.
With `CN(C)CCC(Br)=NOCC(O)CN1CCCCC1` (single isomer, unassigned) [ID 532, 3-(dimethylamino)-N-(2-hydroxy-3-(piperidin-1-yl)propoxy)propanimidoyl bromide] the “GBA EC1.5” value was 30 µM and the Emax [1] was 239%.
In the case of `CC1(/C(Cl)=N/OC[C@H](O)CN2CCCCC2)CCNCC1` (stereo in doubt) [ID 387, (R)—N-(2-hydroxy-3-(piperidin-1-yl)propoxy)-4-methylpiperidine-4-carbimidoyl chloride di-2,2,2-trifluoroacetate], the “GBA EC1.5” value is reported as 35 µM and the Emax [1] is reported as 379%.
With `Nc1c(Br)cc(Br)cc1CN[C@H]1CC[C@H](O)CC1` [Ambroxol, reference compound] the “GBA EC1.5” value was >20* *The 1.5-fold induction criteria was not reached within the tested concentration range μM and the Emax [1] was 127%.
For `[O-][n+]1cccc(/C(Br)=N/OCC(O)CN2CCCCC2)c1` (stereo not drawn) [ID 257], the “GBA EC1.5” value was 35 µM and the Emax [1] was 307%.
In the case of `CC1(/C(Cl)=N/OCC(O)CN2CCCCC2)CCNCC1` (stereo not drawn) [ID 336, N-(2-hydroxy-3-(piperidin-1-yl)propoxy)-4-methylpiperidine-4-carbimidoyl chloride dihydrochloride], the “GBA EC1.5” value is reported as 37 µM and the Emax [1] is reported as 320%.
`[O-][n+]1ccc(/C(Br)=N/OCC(O)CN2CCCCC2)cc1` (stereo not drawn) [ID 352] was tested, and the “GBA EC1.5” value was 45 µM and the Emax [1] was 474%.
For `CC1(/C(Cl)=N/OCC(O)CN2CCC(F)CC2)CCNCC1` (stereo not drawn) [ID 399, N-(3-(4-fluoropiperidin-1-yl)-2-hydroxypropoxy)-4-methylpiperidine-4-carbimidoyl chloride di-2,2,2-trifluoroacetate], the “GBA EC1.5” value was 34 µM and the Emax [1] was 314%.
`CN1CCN(CC(O)CO/N=C(\Cl)C2(C)CCNCC2)CC1` (stereo not drawn) [ID 402, N-(2-hydroxy-3-(4-methylpiperazin-1-yl)propoxy)-4-methylpiperidine-4-carbimidoyl chloride tri-2,2,2-trifluoroacetate] was tested, and the “GBA EC1.5” value was 50 µM and the Emax [1] was 408%.
In the case of `CCC1(/C(Cl)=N/OCC(O)CN2CCCCC2)CCNCC1` (stereo not drawn) [ID 409, 4-ethyl-N-(2-hydroxy-3-(piperidin-1-yl)propoxy)piperidine-4-carbimidoyl chloride di-2,2,2-trifluoroacetate], the “GBA EC1.5” value is reported as 25 µM and the Emax [1] is reported as 255%.
With `OC(CO/N=C(\Cl)C1(c2ccccn2)CCNCC1)CN1CCCCC1` (stereo not drawn) [ID 415, N-(2-hydroxy-3-(piperidin-1-yl)propoxy)-4-(pyridin-2-yl)piperidine-4-carbimidoyl chloride tri-2,2,2-trifluoroacetate] the “GBA EC1.5” value was 23 µM and the Emax [1] was 235%.
